Experimental data from PubChem BioAssay AID1845204 (Molecular Pharmacology Branch, DTP, NCI, 2023).

System: HSSY-II tumor spheroid viability
Assay: Anticancer human tumor HSSY-II cell line growth inhibition;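 also: spheroids exposed to compounds for seven days before reading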;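 as to viability, T/C: percent of DMSO vehicle control viability so 100% = untreated level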
Settings: spheroids with HUVEC and MSC; for IC50: curve of first compound; for viability, T/C: stronger effect = lower value
Method in brief: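 Single agents and combinations were tested on spheroids built from tumor cells plus HUVEC and hMSC, at half-log dilutions starting at or near clinical Cmax, else 10 microM; final DMSO 0.25% (v/v).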

CC(C)n1c(=O)n(C)c2cnc3cc(F)c(-c4ccc(OCCCN5CCCCC5)nc4)cc3c21 + Cn1nnc2c(C(N)=O)ncn2c1=O
IC50 (second compound 1 µM): 6.4 µM | IC50 (second compound 3.16 µM): 6.7 µM | IC50 (second compound 10 µM): 6.54 µM | IC50 (second compound 31.6 µM): 5.86 µM | IC50 (second compound 100 µM): 9.48 µM | viability, T/C (second compound 1 µM, first compound 0.0316 µM): 100% | viability, T/C (second compound 1 µM, first compound 0.1 µM): 97.4% | viability, T/C (second compound 1 µM, first compound 0.316 µM): 97.2% | viability, T/C (second compound 1 µM, first compound 1 µM): 89.6% | viability, T/C (second compound 1 µM, first compound 3.16 µM): 72.7% | viability, T/C (second compound 1 µM, first compound 10 µM): 35.8% | viability, T/C (second compound 3.16 µM, first compound 0.0316 µM): 102% | viability, T/C (second compound 3.16 µM, first compound 0.1 µM): 102% | viability, T/C (second compound 3.16 µM, first compound 0.316 µM): 98% | viability, T/C (second compound 3.16 µM, first compound 1 µM): 93.7% | viability, T/C (second compound 3.16 µM, first compound 3.16 µM): 70.1% | viability, T/C (second compound 3.16 µM, first compound 10 µM): 39.2% | viability, T/C (second compound 10 µM, first compound 0.0316 µM): 103% | viability, T/C (second compound 10 µM, first compound 0.1 µM): 107% | viability, T/C (second compound 10 µM, first compound 0.316 µM): 97.4% | viability, T/C (second compound 10 µM, first compound 1 µM): 97.4% | viability, T/C (second compound 10 µM, first compound 3.16 µM): 73.7% | viability, T/C (second compound 10 µM, first compound 10 µM): 36% | viability, T/C (second compound 31.6 µM, first compound 0.0316 µM): 108% | viability, T/C (second compound 31.6 µM, first compound 0.1 µM): 96% | viability, T/C (second compound 31.6 µM, first compound 0.316 µM): 92.4% | viability, T/C (second compound 31.6 µM, first compound 1 µM): 89.9% | viability, T/C (second compound 31.6 µM, first compound 3.16 µM): 70.9% | viability, T/C (second compound 31.6 µM, first compound 10 µM): 32.4% | viability, T/C (second compound 100 µM, first compound 0.0316 µM): 88.5% | viability, T/C (second compound 100 µM, first compound 0.1 µM): 92.9% | viability, T/C (second compound 100 µM, first compound 0.316 µM): 86.5% | viability, T/C (second compound 100 µM, first compound 1 µM): 76.1% | viability, T/C (second compound 100 µM, first compound 3.16 µM): 69.6% | viability, T/C (second compound 100 µM, first compound 10 µM): 48.4%

COc1ccc([C@@H](O)c2cc(-c3ncnc4cc(N5CCOCC5)ccc34)c(F)cc2Cl)nn1 + CC[C@@]1(O)C(=O)OCc2c1cc1n(c2=O)Cc2cc3c(CN(C)C)c(O)ccc3nc2-1
IC50 (second compound 0.003 µM): 1.38 µM | IC50 (second compound 0.00949 µM): 0.902 µM | IC50 (second compound 0.03 µM): < 0.0316 µM | IC50 (second compound 0.0949 µM): < 0.0316 µM | IC50 (second compound 0.3 µM): < 0.0316 µM | viability, T/C (second compound 0.003 µM, first compound 0.0316 µM): 88.8% | viability, T/C (second compound 0.003 µM, first compound 0.1 µM): 89.5% | viability, T/C (second compound 0.003 µM, first compound 0.316 µM): 74.8% | viability, T/C (second compound 0.003 µM, first compound 1 µM): 61.5% | viability, T/C (second compound 0.003 µM, first compound 3.16 µM): 26.5% | viability, T/C (second compound 0.003 µM, first compound 10 µM): 8.32% | viability, T/C (second compound 0.00949 µM, first compound 0.0316 µM): 62.6% | viability, T/C (second compound 0.00949 µM, first compound 0.1 µM): 65.5% | viability, T/C (second compound 0.00949 µM, first compound 0.316 µM): 63.8% | viability, T/C (second compound 0.00949 µM, first compound 1 µM): 48.6% | viability, T/C (second compound 0.00949 µM, first compound 3.16 µM): 11.7% | viability, T/C (second compound 0.00949 µM, first compound 10 µM): 3.18% | viability, T/C (second compound 0.03 µM, first compound 0.0316 µM): 10.3% | viability, T/C (second compound 0.03 µM, first compound 0.1 µM): 12.2% | viability, T/C (second compound 0.03 µM, first compound 0.316 µM): 10.3% | viability, T/C (second compound 0.03 µM, first compound 1 µM): 6.74% | viability, T/C (second compound 0.03 µM, first compound 3.16 µM): 2.41% | viability, T/C (second compound 0.03 µM, first compound 10 µM): 1.53% | viability, T/C (second compound 0.0949 µM, first compound 0.0316 µM): 9.13% | viability, T/C (second compound 0.0949 µM, first compound 0.1 µM): 8.32% | viability, T/C (second compound 0.0949 µM, first compound 0.316 µM): 7.14% | viability, T/C (second compound 0.0949 µM, first compound 1 µM): 2.81% | viability, T/C (second compound 0.0949 µM, first compound 3.16 µM): 1.55% | viability, T/C (second compound 0.0949 µM, first compound 10 µM): 1.22% | viability, T/C (second compound 0.3 µM, first compound 0.0316 µM): 6.23% | viability, T/C (second compound 0.3 µM, first compound 0.1 µM): 5.53% | viability, T/C (second compound 0.3 µM, first compound 0.316 µM): 4.4% | viability, T/C (second compound 0.3 µM, first compound 1 µM): 2.36% | viability, T/C (second compound 0.3 µM, first compound 3.16 µM): 1.09% | viability, T/C (second compound 0.3 µM, first compound 10 µM): 0.71%
